Test results from patent US12655174B2, “Adenosine A3 receptor agonists, preparation methods and uses thereof” (ZHEJIANG VIMGREEN PHARMACEUTICALS, LTD., priority 2020, dated 2026).

Target: T1, ADORA3 receptor (CHO cells stably expressing ADORA3 receptor) (Homo sapiens, UniProt P0DMS8)
T1 construct: expressed in transfected cells
T1 sequence (P0DMS8 1-318): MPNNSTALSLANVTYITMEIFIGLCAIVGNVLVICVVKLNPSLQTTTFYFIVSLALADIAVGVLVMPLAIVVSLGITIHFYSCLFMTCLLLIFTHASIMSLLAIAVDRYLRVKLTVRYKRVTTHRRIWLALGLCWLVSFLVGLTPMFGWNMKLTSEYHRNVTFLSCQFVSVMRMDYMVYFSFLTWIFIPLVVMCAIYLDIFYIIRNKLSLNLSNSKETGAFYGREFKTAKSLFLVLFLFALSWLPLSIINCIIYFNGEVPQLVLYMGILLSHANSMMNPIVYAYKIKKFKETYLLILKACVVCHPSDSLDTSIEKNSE
Test: Effect of compound on intracellular cAMP level by adenosine A3 receptor agonism
Type: cell-based
Settings: forskolin-stimulated
Description: Example 26: Test the Effect of Compound on Intracellular cAMP Level by Adenosine A3 Receptor Agonism
• 1) 1×HBSS with Ca2+ and Mg2+ (14 mL), 1 M HEPES (75 μL), a 7.5% (w/v) BSA stabilizer (pH 7.4, 200 μL), and 20 mM rolipram (7.5 μL) were respectively prepared as cAMP assay buffer. • 2) Preparation of compound source plate • a. […] A 10 mM stock solution was subjected to a 3-fold serial dilution by 100% (v/v) DMSO to prepare 10 doses of the test substance. • c. 1 mM of Forskolin was prepared by 100% (v/v) DMSO. • 3) Preparation of test plate • a. Prior to the assay, CHO cells stably expressing ADORA3 receptor were harvested and the cells were counted by using a Countess cell counter. […] The cells were seeded at a density of 2,000 cells/well in a 384-well plate. • 4) 10 nL/well of the serially diluted compound and 10 nL/well of 1 mM of forskolin were transferred to each well with ADORA3 receptor expressing cells by using Echo550. • 5) A cell plate was centrifuged at 1,000 rpm for 1 minute and then stirred at 600 rpm for 2 minutes. The plate was incubated at 37° C. • 6) An Eu-cAMP tracer working solution and an Ulight-anti-cAMP working solution were prepared according to the following table.
• 7) 5 μl/well of the Eu-cAMP tracer working solution and 5 μl/well of the Ulight-anti-cAMP working solution were added to each well of the plate. […] 2. Data Analysis • 1) An activation percentage was calculated by using the following formula:
[formula] • % Activation: activation percentage • Ratiocpd: ratio of emissivity of test compound • RatioLow control: ratio of low emissivity • RatioHigh control: ratio of high emissivity • 2) EC50 was calculated by an XLfit using the Hill equation to fit the activity percentage and a log of a compound concentration. 3. Test Result

EC50	Structure (SMILES)
1.23 nM	CNC(=O)[C@H]1O[C@@H](n2cnc3c(NC)nc(-c4cncc(Cl)c4)nc32)[C@H](O)[C@@H]1O [compound 70, (2S,3S,4R,5R)-5-(2-(5-chloropyridin-3-yl)-6-(methylamino)-9H-purin-9-yl)-3,4-dihydroxyl-N-methyltetrahydrofuran-2-carboxamide]
1.41 nM	CNC(=O)[C@H]1O[C@@H](n2cnc3c(NC)nc(-c4cccnc4)nc32)[C@H](O)[C@@H]1O [compound 102, (2S,3S,4R,5R)-3,4-dihydroxyl-N-methyl-5-(6-(methylamino)-2-(pyridin-3-yl)-9H-purin-9-yl)tetrahydrofuran-2-carboxamide]

The remaining lines, values behind:

Structure (SMILES)	EC50
CNC(=O)[C@H]1OC(n2cnc3c(NCc4ccccc4)nc(-c4ccccn4)nc32)[C@H](O)[C@@H]1O (stereo in doubt) [compound 325, (2S,3S,4R,5S)-5-(6-(benzylamino)-2-(pyridin-2-yl)-9H-purin-9-yl)-3,4-dihydroxyl-N-methyltetrahydrofuran-2-carboxamide]	9.62 nM
CNC(=O)[C@H]1O[C@@H](n2cnc3c(NCc4cccc(C)n4)nc(-c4cccnc4)nc32)[C@H](O)[C@@H]1O [compound 107]	5.22 nM
[2H]C([2H])([2H])NC(=O)[C@H]1O[C@@H](n2cnc3c(NCc4cc(C)cc(Cl)c4)nc(-c4cncc(Cl)c4)nc32)[C@H](O)[C@@H]1O [compound 222, (2S,3S,4R,5R)-5-(6-((3-chloro-5-methylbenzyl)amino)-2-(5-chloropyridin-3-yl)-9H-purin-9-yl)-3,4-dihydroxyl-N-(methyl-d3)-tetrahydrofuran-2-carboxamide]	0.89 nM
[2H]C([2H])([2H])NC(=O)[C@H]1O[C@@H](n2cnc3c(NCc4cccc(CC)c4)nc(-c4cncc(Cl)c4)nc32)[C@H](O)[C@@H]1O [compound 223, (2S,3S,4R,5R)-5-(2-(5-chloropyridin-3-yl)-6-((3-ethylbenzyl)amino)-9H-purin-9-yl)-3,4-dihydroxyl-N-(methyl-d3)-tetrahydrofuran-2-carboxamide]	15.2 nM
[2H]C([2H])([2H])NC(=O)[C@H]1O[C@@H](n2cnc3c(NCc4cc(C)cc(C)c4)nc(-c4cncc(Cl)c4)nc32)[C@H](O)[C@@H]1O [compound 224, (2S,3S,4R,5R)-5-(2-(5-chloropyridin-3-yl)-6-((3,5-dimethylbenzyl)amino)-9H-purin-9-yl)-3,4-dihydroxyl-N-(methyl-d3)-tetrahydrofuran-2-carboxamide]	1.34 nM
[2H]C([2H])([2H])NC(=O)[C@H]1O[C@@H](n2cnc3c(NCc4cc(F)ccc4Cl)nc(-c4cncc(Cl)c4)nc32)[C@H](O)[C@@H]1O [compound 246, (2S,3S,4R,5R)-5-(6-(2-chloro-5-fluorobenzylamino)-2-(5-chloropyridin-3-yl)-9H-purin-9-yl)-3,4-dihydroxyl-N-(methyl-d3)-tetrahydrofuran-2-carboxamide]	1.18 nM
CNC(=O)[C@H]1O[C@@H](n2cnc3c(NCc4cccc(Cl)n4)nc(-c4cccnc4)nc32)[C@H](O)[C@@H]1O [compound 247]	4.16 nM
[2H]C([2H])([2H])NC(=O)[C@H]1O[C@@H](n2cnc3c(NCc4cccc(C)c4)nc(-c4cncc(CC)c4)nc32)[C@H](O)[C@@H]1O [compound 282, (2S,3S,4R,5R)-5-(2-(5-ethylpyridin-3-yl)-6-((3-methylbenzyl)amino)-9H-purin-9-yl)-3,4-dihydroxyl-N-(methyl-d3)tetrahydrofuran-2-formamide]	4 nM

Tested on: not listed separately
Test: Pharmacokinetic test of compound in SD rat
Type: in vivo
Settings: SD rats, intragastric administration (IG), cassette dosing
Description: Example 28: Pharmacokinetic Test of Compound in SD Rat
The animal species used in this experiment were SD rats. There were 3 animals per group. The rats were dosed in cassette format, i.e., multiple (1-6) different compounds were dosed simultaneously to the same group of the SD rats. The vehicle used for the drug was 5% DMSO+5% Solutl+90% ([…] methylcellulose M450), and the administration route was intragastric administration (IG).

AUC_D	Structure (SMILES)
175.00 kg·ng·h/mL/mg	[2H]C([2H])([2H])NC(=O)[C@H]1O[C@@H](n2cnc3c(NCCC)nc(-c4cncc(Cl)c4)nc32)[C@H](O)[C@@H]1O [compound 285, (2S,3S,4R,5R)-5-(2-(5-chloropyridin-3-yl)-6-(propylamino)-9H-purin-9-yl)-3,4-dihydroxyl-N-(methyl-d3)-tetrahydrofuran-2-carboxamide]
118.00 kg·ng·h/mL/mg	[2H]C([2H])([2H])NC(=O)[C@H]1O[C@@H](n2cnc3c(NCCOC)nc(-c4cncc(Cl)c4)nc32)[C@H](O)[C@@H]1O [compound 288, (2S,3S,4R,5R)-5-(2-(5-chloropyridin-3-yl)-6-((2-methoxyethyl)amino)-9H-purin-9-yl)-3,4-dihydroxyl-N-(methyl-d3)-tetrahydrofuran-2-carboxamide]
74.00 kg·ng·h/mL/mg	[2H]C([2H])([2H])NC(=O)[C@H]1O[C@@H](n2cnc3c(NC(C)C)nc(-c4cncc(Cl)c4)nc32)[C@H](O)[C@@H]1O [compound 319, (2S,3S,4R,5R)-5-(2-(5-chloropyridin-3-yl)-6-(isopropylamino)-9H-purin-9-yl)-3,4-dihydroxyl-N-(methyl-d3)tetrahydrofuran-2-carboxamide]
97.03 kg·ng·h/mL/mg	CNC(=O)[C@H]1O[C@@H](n2cnc3c(NCc4ccc(F)c(F)c4)nc(-c4cncc(Cl)c4)nc32)[C@H](O)[C@@H]1O [compound 322, (2S,3S,4R,5R)-5-(2-(5-chloropyridin-3-yl)-6-((3,4-difluorobenzyl)amino)-9H-purin-9-yl)-3,4-dihydroxyl-N-methyltetrahydrofuran-2-carboxamide]
78.00 kg·ng·h/mL/mg	CCNC(=O)[C@H]1O[C@@H](n2cnc3c(N)nc(-c4cncc(Cl)c4)nc32)[C@H](O)[C@@H]1O [compound 324, (2S,3S,4R,5R)-5-(6-amino-2-(5-chloropyridin-3-yl)-9H-purin-9-yl)-N-ethyl-3,4-dihydroxyltetrahydrofuran-2-formamide]

Second part, the molecule before the results:

Structure (SMILES)	AUC_D
[2H]C([2H])([2H])NC(=O)[C@H]1O[C@@H](n2cnc3c(NCc4ccc(OC)cc4)nc(-c4cncc(Cl)c4)nc32)[C@H](O)[C@@H]1O [compound 267, (2S,3S,4R,5R)-5-(2-(5-chloropyridin-3-yl)-6-(4-methoxybenzylamino)-9H-purin-9-yl)-3,4-dihydroxyl-N-(methyl-d3)-tetrahydrofuran-2-carboxamide]	82.98 kg·ng·h/mL/mg
[2H]C([2H])([2H])NC(=O)[C@H]1O[C@@H](n2cnc3c(NCc4cccc(C)n4)nc(-c4cncc(Cl)c4)nc32)[C@H](O)[C@@H]1O [compound 271, (2S,3S,4R,5R)-5-(2-(5-chloropyridin-3-yl)-6-((6-methylpyridin-2-yl)methylamino)-9H-purin-9-yl)-3,4-dihydroxyl-N-(methyl-d3)-tetrahydrofuran-2-carboxamide]	1131.18 kg·ng·h/mL/mg
CNC(=O)[C@H]1O[C@@H](n2cnc3c(NCc4cccc(C)n4)nc(-c4cncc(C)c4)nc32)[C@H](O)[C@@H]1O [compound 295, (2S,3S,4R,5R)-3,4-dihydroxyl-N-methyl-5-(6-(((6-methylpyridin-2-yl)methyl)amino)-2-(5-methylpyridin-3-yl)-9H-purin-9-yl)tetrahydrofuran-2-carboxamide]	610.66 kg·ng·h/mL/mg
[2H]C([2H])([2H])NC(=O)[C@H]1O[C@@H](n2cnc3c(NCc4cccc(F)c4)nc(-c4cncc(Cl)c4)nc32)[C@H](O)[C@@H]1O [compound 321]	1167.46 kg·ng·h/mL/mg
[2H]C([2H])([2H])NC(=O)[C@H]1O[C@@H](n2cnc3c(OCc4ccccc4)nc(-c4cncc(Cl)c4)nc32)[C@H](O)[C@@H]1O [compound 323, (2S,3S,4R,5R)-5-(6-(benzyloxy)-2-(5-chloropyridin-3-yl)-9H-purin-9-yl)-3,4-dihydroxyl-N-(methyl-d3)-tetrahydrofuran-2-formamide]	1309.00 kg·ng·h/mL/mg
